The source of these data is ChEMBL document CHEMBL1153757, “Multivariate QSAR study of 4,5-dihydroxypyrimidine carboxamides as HIV-1 integrase inhibitors” (Eur J Med Chem, 2009).

The IC50 is the concentration needed to halve the response being measured. A lower IC50 goes with greater potency in that assay.

Sequence of Human immunodeficiency virus type 1 integrase (Q7ZJM1 whole entry): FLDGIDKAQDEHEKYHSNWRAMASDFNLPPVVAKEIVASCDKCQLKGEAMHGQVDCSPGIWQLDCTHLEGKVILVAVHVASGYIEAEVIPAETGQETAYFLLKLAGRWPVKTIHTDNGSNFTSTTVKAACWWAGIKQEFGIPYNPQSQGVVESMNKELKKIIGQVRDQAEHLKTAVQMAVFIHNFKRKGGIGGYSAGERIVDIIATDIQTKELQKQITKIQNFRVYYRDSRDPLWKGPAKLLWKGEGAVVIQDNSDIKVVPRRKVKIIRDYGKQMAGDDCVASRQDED

The experiment concerns the target Human immunodeficiency virus type 1 integrase (Human immunodeficiency virus 1, UniProt Q7ZJM1). Description: Inhibition of HIV1 integrase strand transfer activity.
Consider `O=C(NCn1ccnc1)c1nc(-c2cccs2)nc(O)c1O`, for which the IC50 was 17000 nM.
The result for `O=C(NCn1cncn1)c1nc(-c2cccs2)nc(O)c1O` reads 50100 nM.
Then `O=C(NCc1cncs1)c1nc(-c2cccs2)nc(O)c1O`, with 2510 nM; and `O=C(Nc1ccc2ccccc2c1)c1nc(-c2cccs2)nc(O)c1O`, with 30.2 nM.
The result for `O=C(NCc1cc2ccccc2s1)c1nc(-c2cccs2)nc(O)c1O` reads 10 nM.
As for `O=C(NCc1csc2ccccc12)c1nc(-c2cccs2)nc(O)c1O`, the IC50 is 50.1 nM. Compared with the last molecule, the IC50 is about 5-fold higher.
As for `O=C(NCc1cccs1)c1nc(-c2cccs2)nc(O)c1O`, inhibition was half-maximal at 100 nM (IC50).
Molecule `O=C(NCc1nccs1)c1nc(-c2cccs2)nc(O)c1O` showed a half-inhibitory concentration (IC50) of 200 nM.
The result for `COc1ccccc1CNC(=O)c1nc(-c2cccs2)nc(O)c1O` reads 91.2 nM; that for `O=C(NCc1ccccc1F)c1nc(-c2cccs2)nc(O)c1O`, 162 nM; that for `O=C(Nc1cccc2ccccc12)c1nc(-c2cccs2)nc(O)c1O`, 214 nM.
For the molecule `O=C(N[C@@H]1CCc2ccccc21)c1nc(-c2cccs2)nc(O)c1O`, the 50% inhibitory concentration (IC50) was 20 nM.
The result for `O=C(NCC1CCCCC1)c1nc(-c2cccs2)nc(O)c1O` reads 10 nM; that for `O=C(N[C@H]1CCc2ccccc21)c1nc(-c2cccs2)nc(O)c1O`, 617 nM.
